The target in one assay is T1, human P2X3 receptor (Homo sapiens, UniProt P56373).
T1 sequence (P56373 1-397): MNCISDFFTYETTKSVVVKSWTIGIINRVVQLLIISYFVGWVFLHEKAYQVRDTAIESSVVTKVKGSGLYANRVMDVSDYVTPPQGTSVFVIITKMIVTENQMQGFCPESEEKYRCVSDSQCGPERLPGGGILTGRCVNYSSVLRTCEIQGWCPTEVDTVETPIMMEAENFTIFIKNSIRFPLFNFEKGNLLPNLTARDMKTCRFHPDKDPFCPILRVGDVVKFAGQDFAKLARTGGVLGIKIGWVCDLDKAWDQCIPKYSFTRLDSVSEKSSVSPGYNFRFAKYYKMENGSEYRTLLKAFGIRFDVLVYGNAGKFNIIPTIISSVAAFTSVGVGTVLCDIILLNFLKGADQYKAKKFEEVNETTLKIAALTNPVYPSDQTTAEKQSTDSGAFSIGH
As to conditions: read-out: reported EC50 for the human P2X3 receptor; cited from earlier work.

Another assay relates to human islets. Briefly: Glucose-induced insulin secretion (glucose raised from 3 mM to 11 mM) in perifused human islets. As to conditions: glucose 3 mM to 11 mM, MRS2159 10 μM, Brilliant Blue G 1 μM, KN-62 1 μM, reactive blue 2 50 μM, MRS2179 10 μM, CGS15943 10 μM, adenosine 100 μM. Format: cell-based. The source says:
Islet Isolation. Islets were isolated as previously described (57). Monkey islets were isolated from cynomolgus monkeys (Macacca fascicularis) >4 years of age at the time of pancreas procurement, as previously described (58). Pig pancreata were procured from the local slaughterhouse. Mice (C57BL/6) and rat (Lewis rat; Harlan) islets were isolated using a rodent-islet isolation technique (59). All animal protocols were approved by the University of Miami Care and Use Committee. Human pancreatic islets were obtained from the Human Islet Cell Processing Facility at the Diabetes Research Institute, University of Miami Miller School of Medicine or from the Islet Cell Resource basic science islet distribution program, Islet Cell Resource Centers (ICRs) Consortium, Division of Clinical Research, National Center for Research Resources, National Institutes of Health. Human islets were dissociated into single cells using enzyme-free cell dissociation buffer (Invitrogen). Islets and islets cells from Q:1 all species were cultured identically (37° C. and 5% CO2) inCMRL Q:2 medium-1066 (Invitrogen), niacinamide (10 mM; Sigma), ITS (BD Biosciences), Zn2SO4 (15 μM, Sigma), GlutaMAX (2 mM; Invitrogen), Hepes (25 mM; Sigma), FBS (10%; Invitrogen), and penicillinstreptomycin (100 IU/mL-100 μg/mL; Invitrogen).
Insulin and Glucagon Secretion. Insulin and glucagon secretion were measured as previously described (8, 36). A high-capacity automated perifusion system was developed to dynamically measure hormone secretion from pancreatic islets. A low pulsatility peristaltic pump pushed Hepes-buffered solution (125 mM NaCl, 5.9 mM KCl, 2.56 mM CaCl2, 1 mM MgCl2, 25 mM Hepes, and 0.1% BSA, pH 7.4 at a perifusion rate of 100 μL/min) through a column containing 100 pancreatic islets immobilized in Bio-Gel P-4 Gel (BioRad). Except when otherwise stated, glucose concentration was adjusted to 3 mM for all experiments. Stimuli were applied with the perifusion buffer. The perifusate was collected in an automatic fraction collector designed for a 96-well plate format. The columns containing the islets and the perifusion solutions were kept at 37° C., and the perifusate in the collecting plate was kept at <4° C. Perifusates were collected every 1 min. Hormone release in the perifusate was determined with the human or mouse Endocrine LINCOplex Kit following manufacturer's instructions (Lincoresearch). Human islet preparations varied considerably in their quality. Thus, the magnitudes of the responses to different stimuli were compared with the same recording or using recordings from the same preparation.

Entries after “also recorded” stand apart in the source; their conditions may differ.

One may read the EC50 as the midpoint of the concentration-response curve.

`Nc1ncnc2c1ncn2[C@@H]1O[C@H](COP(=O)(O)OP(=O)(O)OP(=O)(O)O)[C@@H](O)[C@H]1O` [ATP]: the half-maximal effective concentration (EC50) on human P2X3 receptor was roughly 390 nM. Besides, the “effect on glucose-induced insulin secretion” value with human islets is recorded as “did not add to the insulin response; also recorded: not effective during abrupt increases in glucose concentration”.

Source of the values: US20170035793A1, “Use of P2X Purinergic Receptor Agonists to Enhance Insulin Secretion In Pancreatic Beta Cells” (priority 2010, published 2017).
